Assay results taken from BindingDB's records for doi:10.1021/acschembio.6b00250 (Chinese Academy of Sciences, 2016).

Assays:
Assay in all cases: Invitrogen SelectScreen Enzymatic Assay
[1] = molecular target: Phosphatidylinositol 3-kinase regulatory subunit alpha/4,5-bisphosphate 3-kinase catalytic subunit delta isoform (Homo sapiens, UniProt O00329)
Protocol: (§1) The enzymatic assay was performed using the LifeTechnology SelectScreen.

[2] = molecular target: Phosphatidylinositol 4-phosphate 3-kinase C2 domain-containing subunit alpha (Homo sapiens, UniProt O00443)
Protocol: as §1

[3] = molecular target: Phosphatidylinositol 4,5-bisphosphate 3-kinase catalytic subunit gamma isoform (Homo sapiens, UniProt P48736)
Protocol: as §1

[4] = molecular target: Phosphatidylinositol 3-kinase regulatory subunit alpha/4,5-bisphosphate 3-kinase catalytic subunit alpha isoform (Homo sapiens, UniProt P42336)
Protocol: as §1

[5] = molecular target: Serine/threonine-protein kinase 16 (Homo sapiens, UniProt O75716)
Protocol: as §1

[6] = molecular target: Phosphatidylinositol 4-phosphate 3-kinase C2 domain-containing subunit beta (Homo sapiens, UniProt O00750)
Protocol: as §1

[7] = molecular target: Phosphatidylinositol 4-kinase alpha (Homo sapiens, UniProt P42356)
Protocol: as §1

[8] = molecular target: Phosphatidylinositol 4-kinase beta (Homo sapiens, UniProt Q9UBF8)
Protocol: as §1

[9] = molecular target: Phosphatidylinositol 3-kinase catalytic subunit type 3 (Homo sapiens, UniProt Q8NEB9)
Protocol: as §1

Phosphatidylinositol 3-kinase catalytic subunit type 3, sequence (Q8NEB9 whole entry): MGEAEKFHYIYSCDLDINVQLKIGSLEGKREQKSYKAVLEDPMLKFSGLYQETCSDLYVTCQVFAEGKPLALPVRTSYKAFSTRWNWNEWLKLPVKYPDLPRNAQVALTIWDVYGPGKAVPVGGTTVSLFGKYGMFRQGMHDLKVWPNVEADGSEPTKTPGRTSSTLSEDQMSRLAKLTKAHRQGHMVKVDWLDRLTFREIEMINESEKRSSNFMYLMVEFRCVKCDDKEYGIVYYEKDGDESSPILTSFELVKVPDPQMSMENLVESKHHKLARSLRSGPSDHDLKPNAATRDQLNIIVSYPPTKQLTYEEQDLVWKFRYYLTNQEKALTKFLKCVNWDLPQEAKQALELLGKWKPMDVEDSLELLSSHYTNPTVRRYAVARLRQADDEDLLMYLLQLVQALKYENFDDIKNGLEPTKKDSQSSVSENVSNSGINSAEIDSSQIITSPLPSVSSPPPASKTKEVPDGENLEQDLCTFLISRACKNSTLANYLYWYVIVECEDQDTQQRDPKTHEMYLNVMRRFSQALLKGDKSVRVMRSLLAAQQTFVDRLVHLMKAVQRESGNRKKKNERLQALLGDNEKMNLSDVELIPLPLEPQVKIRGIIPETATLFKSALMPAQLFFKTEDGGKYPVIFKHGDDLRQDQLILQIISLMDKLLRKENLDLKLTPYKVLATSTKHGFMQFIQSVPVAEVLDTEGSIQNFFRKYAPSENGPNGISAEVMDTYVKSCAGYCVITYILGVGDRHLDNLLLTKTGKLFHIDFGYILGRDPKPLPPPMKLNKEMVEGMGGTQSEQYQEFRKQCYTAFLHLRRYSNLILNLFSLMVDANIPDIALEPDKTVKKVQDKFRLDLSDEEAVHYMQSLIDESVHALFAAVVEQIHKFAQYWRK
Phosphatidylinositol 3-kinase regulatory subunit alpha/4,5-bisphosphate 3-kinase catalytic subunit alpha isoform, sequence (P27986 whole entry, canonical isoform): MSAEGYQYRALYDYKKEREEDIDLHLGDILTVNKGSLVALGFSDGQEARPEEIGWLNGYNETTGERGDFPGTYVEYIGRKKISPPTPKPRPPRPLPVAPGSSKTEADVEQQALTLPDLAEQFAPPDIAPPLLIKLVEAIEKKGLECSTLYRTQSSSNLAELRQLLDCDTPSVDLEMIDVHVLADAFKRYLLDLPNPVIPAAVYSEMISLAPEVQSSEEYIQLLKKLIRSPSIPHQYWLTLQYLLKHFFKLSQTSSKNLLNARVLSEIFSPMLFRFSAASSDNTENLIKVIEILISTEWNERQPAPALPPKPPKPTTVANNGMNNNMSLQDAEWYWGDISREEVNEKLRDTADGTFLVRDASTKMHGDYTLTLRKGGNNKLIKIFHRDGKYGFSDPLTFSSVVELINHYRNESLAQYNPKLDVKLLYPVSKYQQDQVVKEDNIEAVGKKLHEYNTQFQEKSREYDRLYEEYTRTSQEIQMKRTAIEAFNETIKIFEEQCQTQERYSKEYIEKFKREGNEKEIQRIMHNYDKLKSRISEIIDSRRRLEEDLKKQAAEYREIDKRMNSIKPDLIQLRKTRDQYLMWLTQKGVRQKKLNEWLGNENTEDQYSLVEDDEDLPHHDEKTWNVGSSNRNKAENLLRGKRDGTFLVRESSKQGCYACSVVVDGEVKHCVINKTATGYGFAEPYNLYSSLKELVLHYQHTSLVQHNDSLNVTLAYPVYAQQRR
Phosphatidylinositol 3-kinase regulatory subunit alpha/4,5-bisphosphate 3-kinase catalytic subunit alpha isoform, sequence (P42336 whole entry, canonical isoform): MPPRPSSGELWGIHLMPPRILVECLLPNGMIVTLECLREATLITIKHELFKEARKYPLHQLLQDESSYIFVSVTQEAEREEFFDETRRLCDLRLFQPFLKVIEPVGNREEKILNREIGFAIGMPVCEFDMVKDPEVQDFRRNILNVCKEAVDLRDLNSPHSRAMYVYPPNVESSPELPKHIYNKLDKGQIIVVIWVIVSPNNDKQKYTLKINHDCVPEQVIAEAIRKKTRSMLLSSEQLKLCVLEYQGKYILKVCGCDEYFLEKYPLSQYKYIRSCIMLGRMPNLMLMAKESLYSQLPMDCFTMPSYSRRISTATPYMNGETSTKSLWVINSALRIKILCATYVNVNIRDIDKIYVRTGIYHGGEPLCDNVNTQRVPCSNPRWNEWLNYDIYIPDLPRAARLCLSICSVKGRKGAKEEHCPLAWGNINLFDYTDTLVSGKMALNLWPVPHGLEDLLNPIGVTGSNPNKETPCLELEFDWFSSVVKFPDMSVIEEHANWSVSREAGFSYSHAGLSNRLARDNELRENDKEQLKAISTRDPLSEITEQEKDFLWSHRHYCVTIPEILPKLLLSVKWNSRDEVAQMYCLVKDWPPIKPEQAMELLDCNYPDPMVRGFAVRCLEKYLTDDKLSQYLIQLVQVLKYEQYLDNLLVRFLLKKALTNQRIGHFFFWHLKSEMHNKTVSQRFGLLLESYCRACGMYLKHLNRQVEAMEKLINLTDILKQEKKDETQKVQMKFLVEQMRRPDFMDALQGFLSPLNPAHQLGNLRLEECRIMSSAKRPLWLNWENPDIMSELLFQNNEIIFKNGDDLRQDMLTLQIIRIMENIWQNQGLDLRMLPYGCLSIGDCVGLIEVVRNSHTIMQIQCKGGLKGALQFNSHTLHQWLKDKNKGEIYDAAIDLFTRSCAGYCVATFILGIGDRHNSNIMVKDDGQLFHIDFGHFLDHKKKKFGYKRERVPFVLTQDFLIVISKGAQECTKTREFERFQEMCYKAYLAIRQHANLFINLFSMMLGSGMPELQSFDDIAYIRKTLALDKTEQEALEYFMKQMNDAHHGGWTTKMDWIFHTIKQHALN
Phosphatidylinositol 3-kinase regulatory subunit alpha/4,5-bisphosphate 3-kinase catalytic subunit delta isoform, sequence (P27986 whole entry, canonical isoform): as the sequence (P27986 whole entry, canonical isoform) above
Phosphatidylinositol 3-kinase regulatory subunit alpha/4,5-bisphosphate 3-kinase catalytic subunit delta isoform, sequence (O00329 whole entry, canonical isoform): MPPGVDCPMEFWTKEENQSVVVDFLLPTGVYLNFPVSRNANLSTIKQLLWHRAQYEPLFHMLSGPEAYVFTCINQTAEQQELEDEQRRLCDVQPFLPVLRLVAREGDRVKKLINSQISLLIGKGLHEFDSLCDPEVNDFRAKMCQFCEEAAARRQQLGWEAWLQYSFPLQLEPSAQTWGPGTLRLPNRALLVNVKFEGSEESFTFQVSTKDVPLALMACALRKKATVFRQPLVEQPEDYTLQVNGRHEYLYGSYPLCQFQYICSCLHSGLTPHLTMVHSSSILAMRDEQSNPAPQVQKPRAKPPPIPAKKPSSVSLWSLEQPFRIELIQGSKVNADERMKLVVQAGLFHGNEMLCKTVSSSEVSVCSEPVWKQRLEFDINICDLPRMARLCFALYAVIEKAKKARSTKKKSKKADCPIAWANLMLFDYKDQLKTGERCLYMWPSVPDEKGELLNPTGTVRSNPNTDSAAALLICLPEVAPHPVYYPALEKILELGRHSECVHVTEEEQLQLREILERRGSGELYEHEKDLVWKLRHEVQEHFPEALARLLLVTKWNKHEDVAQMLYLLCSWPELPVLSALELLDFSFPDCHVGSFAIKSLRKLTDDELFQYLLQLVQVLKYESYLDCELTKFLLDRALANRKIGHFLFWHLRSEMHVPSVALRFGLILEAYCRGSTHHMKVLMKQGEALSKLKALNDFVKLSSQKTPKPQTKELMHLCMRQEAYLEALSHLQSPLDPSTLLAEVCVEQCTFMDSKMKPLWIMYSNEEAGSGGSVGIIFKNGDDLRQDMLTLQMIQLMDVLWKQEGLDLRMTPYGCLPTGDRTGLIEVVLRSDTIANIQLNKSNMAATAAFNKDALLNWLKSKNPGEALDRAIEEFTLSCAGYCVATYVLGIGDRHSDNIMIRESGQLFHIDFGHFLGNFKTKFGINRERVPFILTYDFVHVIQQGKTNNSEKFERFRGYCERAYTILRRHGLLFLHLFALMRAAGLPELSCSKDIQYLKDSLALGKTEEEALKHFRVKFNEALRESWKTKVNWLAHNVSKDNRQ
Phosphatidylinositol 4,5-bisphosphate 3-kinase catalytic subunit gamma isoform, sequence (P48736 whole entry, canonical isoform): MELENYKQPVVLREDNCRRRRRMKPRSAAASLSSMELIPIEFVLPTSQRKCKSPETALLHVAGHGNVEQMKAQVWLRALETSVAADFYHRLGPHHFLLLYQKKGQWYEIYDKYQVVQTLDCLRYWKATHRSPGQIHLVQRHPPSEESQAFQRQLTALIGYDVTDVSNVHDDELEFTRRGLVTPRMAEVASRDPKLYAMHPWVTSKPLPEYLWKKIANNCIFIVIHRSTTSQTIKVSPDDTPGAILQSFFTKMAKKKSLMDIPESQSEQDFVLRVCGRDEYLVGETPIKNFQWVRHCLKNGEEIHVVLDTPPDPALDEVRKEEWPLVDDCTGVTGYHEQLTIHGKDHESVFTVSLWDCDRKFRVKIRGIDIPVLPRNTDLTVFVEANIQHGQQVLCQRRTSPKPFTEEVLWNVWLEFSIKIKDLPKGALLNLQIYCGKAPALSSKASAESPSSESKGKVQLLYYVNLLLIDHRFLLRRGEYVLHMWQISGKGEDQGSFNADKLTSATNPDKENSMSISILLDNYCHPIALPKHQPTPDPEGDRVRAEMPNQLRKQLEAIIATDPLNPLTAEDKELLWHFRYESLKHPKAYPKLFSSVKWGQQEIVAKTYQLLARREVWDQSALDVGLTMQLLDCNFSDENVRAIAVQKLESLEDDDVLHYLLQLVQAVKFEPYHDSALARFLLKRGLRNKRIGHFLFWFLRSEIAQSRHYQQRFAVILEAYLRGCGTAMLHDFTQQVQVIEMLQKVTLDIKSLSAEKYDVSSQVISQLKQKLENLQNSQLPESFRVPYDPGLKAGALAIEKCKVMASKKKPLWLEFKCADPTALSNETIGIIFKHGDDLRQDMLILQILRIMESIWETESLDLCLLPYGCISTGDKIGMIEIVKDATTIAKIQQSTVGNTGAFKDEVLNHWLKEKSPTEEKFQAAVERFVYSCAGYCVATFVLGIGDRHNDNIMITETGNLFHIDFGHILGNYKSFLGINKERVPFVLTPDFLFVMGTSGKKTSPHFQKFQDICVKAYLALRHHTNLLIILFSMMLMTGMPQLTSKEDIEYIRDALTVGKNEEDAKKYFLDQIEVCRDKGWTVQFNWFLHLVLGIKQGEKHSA

IC50 [1]: 856 nM
IC50 [2]: 4860 nM
IC50 [3]: 867 nM
IC50 [4]: 1070 nM
IC50 [5]: 295 nM
IC50 [6]: 9330 nM
IC50 [7]: > 10000 nM
IC50 [8]: > 10000 nM
IC50 [9]: 7940 nM
SMILES: O=c1ccc2cnc3[nH]ccc3c2n1-c1ccc(F)c(O)c1 [STK16-IN-1]
